Holding throughout (type): functional
In one experiment the test system is Candida albicans. In words: Antifungal activity against Candida albicans IFO 0583 assessed as growth inhibition at 200 ug/disc after 48 hrs by agar disc-diffusion method. To be noted: IFO 0583, 48 h, read-out: DIZ.
In another experiment the test system is Pseudomonas aeruginosa. Put plainly: Antibacterial activity against Pseudomonas aeruginosa IFO 3448 assessed as growth inhibition at 200 ug/disc after 24 hrs by agar disc-diffusion method. To be noted: IFO 3448, 24 h, read-out: DIZ. (A growth-free zone around the sample is the usual read-out of agar diffusion tests.)
The test system of a further experiment is Escherichia coli. Put plainly: Antibacterial activity against Escherichia coli IFO 3301 assessed as growth inhibition at 200 ug/disc after 24 hrs by agar disc-diffusion method. Conditions: IFO 3301, 24 h, read-out: DIZ.
The next experiment has as its system Micrococcus luteus. Put plainly: Antibacterial activity against Micrococcus luteus IFO 3232 assessed as growth inhibition at 200 ug/disc after 24 hrs by agar disc-diffusion method. To be noted: IFO 3232, 24 h, read-out: DIZ.
The test system of experiment [1] is Bacillus subtilis. Put plainly: Antibacterial activity against Bacillus subtilis IFO 3007 after 24 hrs by two fold dilution method. To be noted: IFO 3007, 24 h.
In experiment [2] the test system is Bacillus subtilis. In words: Antibacterial activity against Bacillus subtilis IFO 3007 assessed as growth inhibition at 200 ug/disc after 24 hrs by agar disc-diffusion method. To be noted: IFO 3007, 24 h, read-out: DIZ.
Experiment [3] has as its system Staphylococcus aureus. In words: Antibacterial activity against Staphylococcus aureus IFO 3060 after 24 hrs by two fold dilution method. To be noted: IFO 3060, 24 h.
Experiment [4] concerns Staphylococcus aureus. In words: Antibacterial activity against Staphylococcus aureus IFO 3060 assessed as growth inhibition at 200 ug/disc after 24 hrs by agar disc-diffusion method. To be noted: IFO 3060, 24 h, read-out: DIZ.

Values after ≈ are worked out from the molar mass of the structure shown.

What is called MIC is the lowest concentration found to suppress growth. Lower therefore signals a more susceptible organism.

Take `Cn1c(C23CC4CC(CC(C4)C2)C3)nn(CN2CCN(c3ccccc3)CC2)c1=S`: the zone of inhibition at 200 µg/disc in the experiment with Candida albicans is less than 10 mm; with Pseudomonas aeruginosa it was less than 10 mm; with Escherichia coli it was less than 10 mm; in the experiment on Micrococcus luteus it was 14 mm; with Bacillus subtilis [2], 18 mm; in the experiment on Staphylococcus aureus [4], 19 mm. Besides, the MIC against Bacillus subtilis [1] is 16 µg/mL (≈ 37.8 µM); against Staphylococcus aureus [3], 8 µg/mL (≈ 18.9 µM).
With `S=c1n(CNc2cc(Cl)cc(Cl)c2)nc(C23CC4CC(CC(C4)C2)C3)n1-c1ccc(Cl)cc1`, the zone of inhibition at 200 µg/disc was less than 10 mm in the experiment with Candida albicans; less than 10 mm in the experiment on Pseudomonas aeruginosa; less than 10 mm in the experiment on Escherichia coli; 11 mm in the experiment with Micrococcus luteus; 13 mm in the experiment on Bacillus subtilis [2]; 12 mm with Staphylococcus aureus [4].
As to `CCOC(=O)N1CCN(Cn2nc(C34CC5CC(CC(C5)C3)C4)n(/N=C/c3ccc(O)cc3)c2=S)CC1`, the zone of inhibition at 200 µg/disc in the experiment with Candida albicans was less than 10 mm; with Pseudomonas aeruginosa, less than 10 mm; with Escherichia coli, less than 10 mm; with Micrococcus luteus, 14 mm; in the experiment with Bacillus subtilis [2], 16 mm; with Staphylococcus aureus [4] it was 17 mm.
With `Fc1cccc(F)c1NCn1nc(C23CC4CC(CC(C4)C2)C3)n(-c2ccc(Cl)cc2)c1=S`, the zone of inhibition at 200 µg/disc was found to be 13 mm with Candida albicans; 11 mm with Pseudomonas aeruginosa; 14 mm in the experiment with Escherichia coli; 17 mm with Micrococcus luteus; 20 mm with Bacillus subtilis [2]; 18 mm in the experiment on Staphylococcus aureus [4]. Moreover, in the experiment on Bacillus subtilis [1], the MIC came out at 8 µg/mL (≈ 16.4 µM).
Turning to `Cn1c(C23CC4CC(CC(C4)C2)C3)nn(CNc2ccc(F)cc2)c1=S`, the zone of inhibition at 200 µg/disc with Candida albicans is less than 10 mm; in the experiment on Pseudomonas aeruginosa, less than 10 mm; with Escherichia coli it was less than 10 mm; in the experiment on Micrococcus luteus, less than 10 mm; in the experiment with Bacillus subtilis [2], 12 mm; in the experiment on Staphylococcus aureus [4], 12 mm.
`CCN1CCN(Cn2nc(C34CC5CC(CC(C5)C3)C4)n(-c3ccc(Cl)cc3)c2=S)CC1`: the zone of inhibition at 200 µg/disc was less than 10 mm in the experiment with Candida albicans; less than 10 mm with Pseudomonas aeruginosa; less than 10 mm in the experiment with Escherichia coli; 15 mm in the experiment with Micrococcus luteus; 18 mm in the experiment with Bacillus subtilis [2]; 14 mm with Staphylococcus aureus [4]. In addition, it took 8 µg/mL (≈ 16.9 µM) to inhibit growth in the experiment on Bacillus subtilis [1] (MIC).
With `CCOC(=O)N1CCN(Cn2nc(C34CC5CC(CC(C5)C3)C4)n(/N=C/c3ccccc3O)c2=S)CC1`, the zone of inhibition at 200 µg/disc in the experiment with Candida albicans was less than 10 mm; with Pseudomonas aeruginosa, less than 10 mm; in the experiment on Escherichia coli, less than 10 mm; in the experiment with Micrococcus luteus it was 16 mm; in the experiment on Bacillus subtilis [2], 19 mm; in the experiment with Staphylococcus aureus [4] it was 18 mm. For the same compound, the minimal inhibitory concentration (MIC) in the experiment with Bacillus subtilis [1] and in the experiment on Staphylococcus aureus [3] was 4 µg/mL (≈ 7.62 µM) throughout.
Consider `Oc1ccccc1/C=N/n1c(C23CC4CC(CC(C4)C2)C3)nn(CN2CCN(Cc3ccccc3)CC2)c1=S`, for which the zone of inhibition at 200 µg/disc with Candida albicans was less than 10 mm; with Pseudomonas aeruginosa, 11 mm; with Escherichia coli it was 11 mm; with Micrococcus luteus, 17 mm; with Bacillus subtilis [2] it was 21 mm; in the experiment with Staphylococcus aureus [4], 19 mm. Moreover, the MIC against Bacillus subtilis [1] and in the experiment on Staphylococcus aureus [3] was 2 µg/mL (≈ 3.68 µM) throughout.
On to `Fc1ccccc1NCn1nc(C23CC4CC(CC(C4)C2)C3)n(-c2ccc(Cl)cc2)c1=S`, for which the zone of inhibition at 200 µg/disc in the experiment on Candida albicans was less than 10 mm; in the experiment on Pseudomonas aeruginosa it was less than 10 mm; in the experiment on Escherichia coli, less than 10 mm; with Micrococcus luteus it was 12 mm; in the experiment on Bacillus subtilis [2], 12 mm; with Staphylococcus aureus [4] it was 11 mm.
As for `S=c1n(CN2CCN(c3ccccc3)CC2)nc(C23CC4CC(CC(C4)C2)C3)n1-c1ccc(Cl)cc1`, the zone of inhibition at 200 µg/disc with Candida albicans was less than 10 mm; in the experiment with Pseudomonas aeruginosa, less than 10 mm; in the experiment on Escherichia coli, less than 10 mm; in the experiment with Micrococcus luteus, 14 mm; in the experiment with Bacillus subtilis [2], 17 mm; in the experiment with Staphylococcus aureus [4], 16 mm.
With `Fc1ccc(NCn2nc(C34CC5CC(CC(C5)C3)C4)n(-c3ccc(Cl)cc3)c2=S)cc1`, the zone of inhibition at 200 µg/disc was less than 10 mm in the experiment with Candida albicans; less than 10 mm in the experiment with Pseudomonas aeruginosa; less than 10 mm in the experiment with Escherichia coli; 12 mm in the experiment with Micrococcus luteus; 16 mm with Bacillus subtilis [2]; 14 mm in the experiment with Staphylococcus aureus [4].
Turning to `Cn1c(C23CC4CC(CC(C4)C2)C3)nn(CNc2ccc(Br)cc2)c1=S`, the zone of inhibition at 200 µg/disc in the experiment with Candida albicans, in the experiment on Pseudomonas aeruginosa, in the experiment with Escherichia coli, in the experiment on Micrococcus luteus, in the experiment with Bacillus subtilis [2] and in the experiment on Staphylococcus aureus [4] was less than 10 mm each time.
With `S=c1n(CNc2ccccc2)nc(C23CC4CC(CC(C4)C2)C3)n1-c1ccc(Cl)cc1`, the zone of inhibition at 200 µg/disc with Candida albicans, in the experiment with Pseudomonas aeruginosa, in the experiment on Escherichia coli, with Micrococcus luteus, in the experiment on Bacillus subtilis [2] and with Staphylococcus aureus [4] was less than 10 mm in each case.
`CCOc1ccc(NCn2nc(C34CC5CC(CC(C5)C3)C4)n(-c3ccc(Cl)cc3)c2=S)cc1`: the zone of inhibition at 200 µg/disc with Candida albicans, in the experiment on Pseudomonas aeruginosa, in the experiment with Escherichia coli, with Micrococcus luteus, with Bacillus subtilis [2] and in the experiment with Staphylococcus aureus [4] was less than 10 mm in each case.
With `FC(F)(F)c1ccccc1NCn1nc(C23CC4CC(CC(C4)C2)C3)n(-c2ccc(Cl)cc2)c1=S`, the zone of inhibition at 200 µg/disc is less than 10 mm with Candida albicans; 11 mm in the experiment with Pseudomonas aeruginosa; 12 mm with Escherichia coli; 14 mm with Micrococcus luteus; 19 mm with Bacillus subtilis [2]; 17 mm with Staphylococcus aureus [4]. In the experiment on Bacillus subtilis [1], the MIC came out at 16 µg/mL (≈ 30.8 µM).
Consider `FC(F)(F)c1cccc(NCn2nc(C34CC5CC(CC(C5)C3)C4)n(-c3ccc(Cl)cc3)c2=S)c1`, for which the zone of inhibition at 200 µg/disc in the experiment on Candida albicans was less than 10 mm; with Pseudomonas aeruginosa, less than 10 mm; in the experiment with Escherichia coli it was less than 10 mm; in the experiment with Micrococcus luteus, 17 mm; with Bacillus subtilis [2], 16 mm; with Staphylococcus aureus [4], 16 mm.
For `S=c1n(CNc2ccc(Br)cc2)nc(C23CC4CC(CC(C4)C2)C3)n1-c1ccc(Cl)cc1`, the zone of inhibition at 200 µg/disc in the experiment with Candida albicans, in the experiment with Pseudomonas aeruginosa, with Escherichia coli, in the experiment with Micrococcus luteus, with Bacillus subtilis [2] and in the experiment with Staphylococcus aureus [4] was less than 10 mm throughout.
Turning to `Cn1c(C23CC4CC(CC(C4)C2)C3)nn(CNc2ccccc2)c1=S`, the zone of inhibition at 200 µg/disc in the experiment with Candida albicans was less than 10 mm; with Pseudomonas aeruginosa, less than 10 mm; in the experiment on Escherichia coli it was less than 10 mm; in the experiment with Micrococcus luteus it was less than 10 mm; in the experiment with Bacillus subtilis [2], 12 mm; with Staphylococcus aureus [4], less than 10 mm.
`COc1ccccc1N1CCN(Cn2nc(C34CC5CC(CC(C5)C3)C4)n(-c3ccc(Cl)cc3)c2=S)CC1`: the zone of inhibition at 200 µg/disc is less than 10 mm in the experiment with Candida albicans; less than 10 mm in the experiment with Pseudomonas aeruginosa; less than 10 mm in the experiment on Escherichia coli; 16 mm in the experiment with Micrococcus luteus; 18 mm with Bacillus subtilis [2]; 18 mm in the experiment with Staphylococcus aureus [4]. The MIC in the experiment on Bacillus subtilis [1] and in the experiment on Staphylococcus aureus [3] was 16 µg/mL (≈ 29.1 µM) throughout.
Regarding `S=c1n(CN2CCN(Cc3ccccc3)CC2)nc(C23CC4CC(CC(C4)C2)C3)n1-c1ccc(Cl)cc1`, the zone of inhibition at 200 µg/disc in the experiment with Candida albicans was less than 10 mm; in the experiment on Pseudomonas aeruginosa, less than 10 mm; with Escherichia coli it was less than 10 mm; with Micrococcus luteus, 11 mm; with Bacillus subtilis [2], 12 mm; in the experiment on Staphylococcus aureus [4], 11 mm.
Consider `S=c1n(CNc2ccccc2Cl)nc(C23CC4CC(CC(C4)C2)C3)n1-c1ccc(Cl)cc1`, for which the zone of inhibition at 200 µg/disc in the experiment with Candida albicans was less than 10 mm; with Pseudomonas aeruginosa it was less than 10 mm; with Escherichia coli, less than 10 mm; in the experiment with Micrococcus luteus, less than 10 mm; with Bacillus subtilis [2], 11 mm; in the experiment on Staphylococcus aureus [4] it was 16 mm.
As for `CCOc1ccc(NCn2nc(C34CC5CC(CC(C5)C3)C4)n(C)c2=S)cc1`, the zone of inhibition at 200 µg/disc in the experiment on Candida albicans, with Pseudomonas aeruginosa, in the experiment on Escherichia coli, in the experiment on Micrococcus luteus, in the experiment with Bacillus subtilis [2] and in the experiment with Staphylococcus aureus [4] was less than 10 mm in each case.

Values taken from ChEMBL document CHEMBL2424616, “Synthesis and antimicrobial activity of novel 5-(1-adamantyl)-2-aminomethyl-4-substituted-1,2,4-triazoline-3-thiones” (2013).
